System: Energy system protein genes
Assay: DNA chip mRNA expression in yeast, energy system protein genes (Table 4)
Format: cell-based, Saccharomyces cerevisiae S288C
Summary of the method: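 Measured as treated-to-untreated fluorescence ratio on a full-genome yeast DNA chip. Cells (S288C, YPD, 25° C.) were exposed in log phase for two hours to one chemical, dosed to curb growth without killing.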

[Cl][Cd][Cl] [(2), CdCl2]
The level of expressed mRNA in the presence of chemical substance/The level of expressed mRNA in the absence of chemical substance (yeast gene YAL060W): 1.8
The level of expressed mRNA in the presence of chemical substance/The level of expressed mRNA in the absence of chemical substance (yeast gene YBL058W, cells incubated two hours with the chemical substance): 1.5
The level of expressed mRNA in the presence of chemical substance/The level of expressed mRNA in the absence of chemical substance (yeast gene YBL099W, cells incubated two hours with the chemical substance): 0.9
The level of expressed mRNA in the presence of chemical substance/The level of expressed mRNA in the absence of chemical substance (yeast gene YBR001C, cells incubated two hours with the chemical substance): 1.4
The level of expressed mRNA in the presence of chemical substance/The level of expressed mRNA in the absence of chemical substance (yeast gene YBR185C, cells incubated two hours with the chemical substance): 1.0
The level of expressed mRNA in the presence of chemical substance/The level of expressed mRNA in the absence of chemical substance (yeast gene YBR221C, cells incubated two hours with the chemical substance): 0.7
The level of expressed mRNA in the presence of chemical substance/The level of expressed mRNA in the absence of chemical substance (yeast gene YCL040W): 5.6
The level of expressed mRNA in the presence of chemical substance/The level of expressed mRNA in the absence of chemical substance (yeast gene YCR012W): 1.5
The level of expressed mRNA in the presence of chemical substance/The level of expressed mRNA in the absence of chemical substance (yeast gene YCR046C, cells incubated two hours with the chemical substance): 1.2
The level of expressed mRNA in the presence of chemical substance/The level of expressed mRNA in the absence of chemical substance (yeast gene YCR105W, cells incubated two hours with the chemical substance): 1.2
The level of expressed mRNA in the presence of chemical substance/The level of expressed mRNA in the absence of chemical substance (yeast gene YDL021W): 1.7
The level of expressed mRNA in the presence of chemical substance/The level of expressed mRNA in the absence of chemical substance (yeast gene YDL067C, cells incubated two hours with the chemical substance): 1.0
The level of expressed mRNA in the presence of chemical substance/The level of expressed mRNA in the absence of chemical substance (yeast gene YDL078C, cells incubated two hours with the chemical substance): 1.1
The level of expressed mRNA in the presence of chemical substance/The level of expressed mRNA in the absence of chemical substance (yeast gene YDL107W, cells incubated two hours with the chemical substance): 1.3
The level of expressed mRNA in the presence of chemical substance/The level of expressed mRNA in the absence of chemical substance (yeast gene YDL174C): 1.8
The level of expressed mRNA in the presence of chemical substance/The level of expressed mRNA in the absence of chemical substance (yeast gene YDL181W, cells incubated two hours with the chemical substance): 1.8
The level of expressed mRNA in the presence of chemical substance/The level of expressed mRNA in the absence of chemical substance (yeast gene YDR001C): 2.2
The level of expressed mRNA in the presence of chemical substance/The level of expressed mRNA in the absence of chemical substance (yeast gene YDR050C, cells incubated two hours with the chemical substance): 1.3
The level of expressed mRNA in the presence of chemical substance/The level of expressed mRNA in the absence of chemical substance (yeast gene YDR079W, cells incubated two hours with the chemical substance): 1.1
The level of expressed mRNA in the presence of chemical substance/The level of expressed mRNA in the absence of chemical substance (yeast gene YDR178W, cells incubated two hours with the chemical substance): 2.0
The level of expressed mRNA in the presence of chemical substance/The level of expressed mRNA in the absence of chemical substance (yeast gene YDR231C): 1.6
The level of expressed mRNA in the presence of chemical substance/The level of expressed mRNA in the absence of chemical substance (yeast gene YDR298C, cells incubated two hours with the chemical substance): 1.2
The level of expressed mRNA in the presence of chemical substance/The level of expressed mRNA in the absence of chemical substance (yeast gene YDR377W, cells incubated two hours with the chemical substance): 1.1
The level of expressed mRNA in the presence of chemical substance/The level of expressed mRNA in the absence of chemical substance (yeast gene YDR529C, cells incubated two hours with the chemical substance): 1.0
The level of expressed mRNA in the presence of chemical substance/The level of expressed mRNA in the absence of chemical substance (yeast gene YEL024W, cells incubated two hours with the chemical substance): 0.9
The level of expressed mRNA in the presence of chemical substance/The level of expressed mRNA in the absence of chemical substance (yeast gene YEL039C, cells incubated two hours with the chemical substance): 0.7
The level of expressed mRNA in the presence of chemical substance/The level of expressed mRNA in the absence of chemical substance (yeast gene YER178W): 0.9
The level of expressed mRNA in the presence of chemical substance/The level of expressed mRNA in the absence of chemical substance (yeast gene YFL057C): 5.9
The level of expressed mRNA in the presence of chemical substance/The level of expressed mRNA in the absence of chemical substance (yeast gene YFR053C): 1.4
The level of expressed mRNA in the presence of chemical substance/The level of expressed mRNA in the absence of chemical substance (yeast gene YGL018C, cells incubated two hours with the chemical substance): 1.0
The level of expressed mRNA in the presence of chemical substance/The level of expressed mRNA in the absence of chemical substance (yeast gene YGL062W): 1.3
The level of expressed mRNA in the presence of chemical substance/The level of expressed mRNA in the absence of chemical substance (yeast gene YGL187C, cells incubated two hours with the chemical substance): 0.8
The level of expressed mRNA in the presence of chemical substance/The level of expressed mRNA in the absence of chemical substance (yeast gene YGL191W, cells incubated two hours with the chemical substance): 1.6
The level of expressed mRNA in the presence of chemical substance/The level of expressed mRNA in the absence of chemical substance (yeast gene YGL205W, cells incubated two hours with the chemical substance): 0.9
The level of expressed mRNA in the presence of chemical substance/The level of expressed mRNA in the absence of chemical substance (yeast gene YGL256W, cells incubated two hours with the chemical substance): 5.3
The level of expressed mRNA in the presence of chemical substance/The level of expressed mRNA in the absence of chemical substance (yeast gene YGR043C): 3.7
The level of expressed mRNA in the presence of chemical substance/The level of expressed mRNA in the absence of chemical substance (yeast gene YGR062C, cells incubated two hours with the chemical substance, 25° C., YPD medium): 1.0
The level of expressed mRNA in the presence of chemical substance/The level of expressed mRNA in the absence of chemical substance (yeast gene YGR087C, cells incubated two hours with the chemical substance): 15.0
The level of expressed mRNA in the presence of chemical substance/The level of expressed mRNA in the absence of chemical substance (yeast gene YGR174C, cells incubated two hours with the chemical substance): 1.6
The level of expressed mRNA in the presence of chemical substance/The level of expressed mRNA in the absence of chemical substance (yeast gene YGR192C): 1.0
The level of expressed mRNA in the presence of chemical substance/The level of expressed mRNA in the absence of chemical substance (yeast gene YGR244C): 1.2
The level of expressed mRNA in the presence of chemical substance/The level of expressed mRNA in the absence of chemical substance (yeast gene YGR254W): 1.3
The level of expressed mRNA in the presence of chemical substance/The level of expressed mRNA in the absence of chemical substance (yeast gene YHR179W): 2.3
The level of expressed mRNA in the presence of chemical substance/The level of expressed mRNA in the absence of chemical substance (yeast gene YIL160C): 2.4
The level of expressed mRNA in the presence of chemical substance/The level of expressed mRNA in the absence of chemical substance (yeast gene YIR031C, cells incubated two hours with the chemical substance): 1.6
The level of expressed mRNA in the presence of chemical substance/The level of expressed mRNA in the absence of chemical substance (yeast gene YJL052W): 0.9
The level of expressed mRNA in the presence of chemical substance/The level of expressed mRNA in the absence of chemical substance (yeast gene YJL121C, cells incubated two hours with the chemical substance): 0.5
The level of expressed mRNA in the presence of chemical substance/The level of expressed mRNA in the absence of chemical substance (yeast gene YJL166W, cells incubated two hours with the chemical substance): 1.5
The level of expressed mRNA in the presence of chemical substance/The level of expressed mRNA in the absence of chemical substance (yeast gene YJL216C, cells incubated two hours with the chemical substance): 4.7
The level of expressed mRNA in the presence of chemical substance/The level of expressed mRNA in the absence of chemical substance (yeast gene YJR009C): 1.7

From US8192962B2, “Processes for detecting toxic substances” (Daikin Industries, Ltd., priority 2001, dated 2012)
